Results published in patent US20150119251A1, “AGRICULTURAL PLANT-PROTECTING AGENTS CONTAINING DIPEPTIDE DERIVATIVE AS ACTIVE INGREDIENT” (REPUBLIC OF KOREA (RURAL DEVELOPMENT ADMINISTRATION), priority 2012, published 2015).
Square brackets hold non-standard residues; d marks the D form. Peptide text beside a SMILES is read from it. * marks the point of attachment. ξ: configuration not given here. Trt = c1ccc(C(c2ccccc2)(c2ccccc2)*)cc1; dIle(3ξ) = CCC(C)[C@@H](N)C(=O)O; Boc = CC(C)(C)OC(=O)*; Bz = O=C(c1ccccc1)*; OBn = c1ccc(CO*)cc1; OtBu = CC(C)(C)O*; OAll = C=CCO*

What was measured:
[1] = system: tobacco bacterial rot (Pectobacterium carotovorum); test: Suppression of tobacco bacterial rot; type: in vivo, Pectobacterium carotovorum SCC1
Description: A tobacco or cucumber was sown in a plastic pot with a diameter of 10 cm×13 cm, and then, 12 pots were added in a yellow box. After seeding, 100 μL was inoculated to the cotyledons of cucumber or tobacco, in which first leaf was started to come out. The test compounds were dissolved in 20% methanol to make a stock solution, and then, the stock solution was diluted to the concentrations of 1, 10, and 100 ppm.
After 7 days, the pathogen of a plant bacterial rot (Pectobacterium carotovorum SCC1) was cultured in a TSA medium for 27 hours; and then, the cultured pathogen was sprayed in a concentration of 10^8 cfu/mL to the plant leaves, and cultured at 30° C. for 3 days. The plant anthracnose germ (Colletotrichum orbiculare) was cultured in a GBA (Green bean agar) medium to induce spores for about 2 to 3 weeks. The germ was sprayed in a concentration of 10^5 cell/mL and then cultured at 26° C. for 1 day. When fourth or fifth leaf came out, 200 μL of each of the test compounds was inoculated to third leaf. After 7 days, the pathogen of the plant bacterial rot was sprayed to the plant leaves in the concentration of 10^8 cfu/mL, and then cultured at 30° C. for 3 days.
The investigation was performed with naked eyes, and the lesion relative areas were investigated until 0 to 100% according to the shortness degrees of the bacterial rot. The anthracnose was investigated by counting the number of lesions occurred on the leaves.

[2] = system: pepper phytophthora blight (Phytopthora capsici); test: Suppression of pepper phytophthora blight on leaves; type: in vivo; conditions: for Lesion outbreak rate: pepper leaves
Description: The peppers were raised in the same method as Example 3, and then, the test compounds were dissolved in 20% methanol to make a stock solution, and a stock was diluted to the concentrations of 0.1, 1.0, and 10.0 ppm. The test solutions were sprayed on the leaves or drench-treated on the leaves. After 7 days, the pathogen of plant bacterial rot (Pectobacterium carotovorum SCC1) was cultured in a TSA medium for 27 hours, and then, wetted on an 8 mm diameter paper disc in the concentration of 10^8 cfu/mL. The paper disc was located in the center of the leaves that were cut roundly, and then, after about 7 days, the lesion area was measured. In the case of phytophthora, the potato agar medium cultured with the phytophthora (Phytophthora capsici) was cut in the internal diameter size of 5 mm with a cork borer, and then inoculated to the leaves. After 7 days, the lesion area was observed. In the case of a bacterial rot, when Compounds 6, 89, 93, and 95 were sprayed on the pepper leaves, the bacterial rot was not found in the concentration of 1 or 10 ppm as compared with the non-treated group. […] The Suppression of lesion formation on the leaves when these compounds were drench-treated to the roots can be explained as it was resulted from that systemic disease resistance was induced in the whole plant. These test results are illustrated in the photographs of FIGS. 5 to 9.

SMILES | Lesion outbreak rate ([1]; Table 5, tobacco, 10 ppm) | Lesion outbreak rate ([1]; Table 5, tobacco, 100 ppm) | Lesion outbreak rate ([2]; 0.1 ppm) | Lesion outbreak rate ([2]; 1.0 ppm) | also measured
COC(=O)[C@H]1CCCN1C(=O)[C@H](CCCCNC(=O)OC(C)(C)C)NC(=O)OC(C)(C)C [Compound 48] (Boc-Lys(Boc)-[dP]-OMe) | 25% | 50% |  |  | 
COC(=O)[C@H]1CCCN1C(=O)[C@@H](NC(=O)OC(C)(C)C)C(C)C [Compound 49] (Boc-Val-[dP]-OMe) | 23% | 0% |  |  | 
COC(=O)[C@H]1CCCN1C(=O)[C@H](CCC(=O)OC(C)(C)C)NC(=O)OC(C)(C)C [Compound 50] (Boc-Glu(OtBu)-[dP]-OMe) | 35% | 60% |  |  | 
COC(=O)[C@@H]1CCCN1C(=O)[C@@H](C)NC(=O)OC(C)(C)C [Compound 51] (Boc-[dA]-Pro-OMe) | 0% | 68% |  |  | 
COC(=O)[C@@H]1CCCN1C(=O)[C@@H](Cc1c[nH]c2ccccc12)NC(=O)OC(C)(C)C [Compound 52] (Boc-[dW]-Pro-OMe) | 0% | 25% |  |  | 
COC(=O)[C@@H]1CCCN1C(=O)[C@@H](Cc1ccc(O)cc1)NC(=O)OC(C)(C)C [Compound 53] (Boc-[dY]-Pro-OMe) | 45% | 50% |  |  | 
COC(=O)[C@@H]1CCCN1C(=O)[C@@H](CCC(N)=O)NC(=O)OC(C)(C)C [Compound 54] (Boc-[dQ]-Pro-OMe) | 36% | 60% |  |  | 
COC(=O)[C@@H]1CCCN1C(=O)[C@H]1CCCN1C(=O)OC(C)(C)C [Compound 55] (Boc-[dP]-Pro-OMe) | 48% | 36% |  |  | 
COC(=O)[C@@H]1CCCN1C(=O)[C@H](NC(=O)OC(C)(C)C)C(C)C [Compound 56] (Boc-[dV]-Pro-OMe) | 13% | 40% |  |  | 
COC(=O)[C@@H]1CCCN1C(=O)[C@@H](CC(C)C)NC(=O)OC(C)(C)C [Compound 57] (Boc-[dL]-Pro-OMe) | 25% | 25% |  |  | 
CCC(C)[C@@H](NC(=O)OC(C)(C)C)C(=O)N1CCC[C@H]1C(=O)OC (stereo partly drawn) [Compound 58] (Boc-[dIle(3ξ)]-Pro-OMe) | 28% | 13% |  |  | 
COC(=O)[C@@H]1CCCN1C(=O)[C@@H](Cc1ccccc1)NC(=O)OC(C)(C)C [Compound 59] (Boc-[dF]-Pro-OMe) | 38% | 25% |  |  | 
COC(=O)[C@@H]1CCCN1C(=O)[C@@H](CO)NC(=O)OC(C)(C)C [Compound 60] (Boc-[dS]-Pro-OMe) | 18% | 56% |  |  | 
COC(=O)[C@@H]1CCCN1C(=O)[C@@H](CCSC)NC(=O)OC(C)(C)C [Compound 63] (Boc-[dM]-Pro-OMe) | 56% | 52% |  |  | 
COC(=O)[C@H]1CCCN1C(=O)[C@@H](CO)NC(=O)OC(C)(C)C [Compound 64] (Boc-[dS]-[dP]-OMe) |  |  |  |  | Lesion outbreak rate ([1]; Table 6, tobacco, 1 ppm): 100%; Lesion outbreak rate ([1]; Table 6, tobacco, 10 ppm): 23%; Lesion outbreak rate ([1]; Table 6, tobacco, 100 ppm): 100%
COC(=O)[C@H]1CCCN1C(=O)[C@@H](Cc1ccccc1)NC(=O)OC(C)(C)C [Compound 65] (Boc-[dF]-[dP]-OMe) |  |  |  |  | Lesion outbreak rate ([1]; Table 6, tobacco, 1 ppm): 80%; Lesion outbreak rate ([1]; Table 6, tobacco, 10 ppm): 57%; Lesion outbreak rate ([1]; Table 6, tobacco, 100 ppm): 55%
COC(=O)[C@H]1CCCN1C(=O)[C@@H](CCSC)NC(=O)OC(C)(C)C [Compound 68] (Boc-[dM]-[dP]-OMe) |  |  |  |  | Lesion outbreak rate ([1]; Table 6, tobacco, 1 ppm): 78%; Lesion outbreak rate ([1]; Table 6, tobacco, 10 ppm): 53%; Lesion outbreak rate ([1]; Table 6, tobacco, 100 ppm): 25%
COC(=O)[C@H]1CCCN1C(=O)[C@@H](C)NC(=O)OC(C)(C)C [Compound 70] (Boc-[dA]-[dP]-OMe) |  |  |  |  | Lesion outbreak rate ([1]; Table 6, tobacco, 1 ppm): 80%; Lesion outbreak rate ([1]; Table 6, tobacco, 10 ppm): 72%; Lesion outbreak rate ([1]; Table 6, tobacco, 100 ppm): 77%
COC(=O)[C@H]1CCCN1C(=O)[C@@H](Cc1ccc(O)cc1)NC(=O)OC(C)(C)C [Compound 71] (Boc-[dY]-[dP]-OMe) |  |  |  |  | Lesion outbreak rate ([1]; Table 6, tobacco, 1 ppm): 60%; Lesion outbreak rate ([1]; Table 6, tobacco, 10 ppm): 65%; Lesion outbreak rate ([1]; Table 6, tobacco, 100 ppm): 40%

SMILES | Lesion outbreak rate ([1]; Table 5, tobacco, 10 ppm) | Lesion outbreak rate ([1]; Table 5, tobacco, 100 ppm) | Lesion outbreak rate ([2]; 0.1 ppm) | Lesion outbreak rate ([2]; 1.0 ppm) | also measured
COC(=O)[C@H]1CCCN1C(=O)[C@@H](CCC(N)=O)NC(=O)OC(C)(C)C [Compound 72] (Boc-[dQ]-[dP]-OMe) |  |  |  |  | Lesion outbreak rate ([1]; Table 6, tobacco, 1 ppm): 55%; Lesion outbreak rate ([1]; Table 6, tobacco, 10 ppm): 72%; Lesion outbreak rate ([1]; Table 6, tobacco, 100 ppm): 45%
COC(=O)[C@H]1CCCN1C(=O)[C@@H](Cc1c[nH]c2ccccc12)NC(=O)OC(C)(C)C [Compound 73] (Boc-[dW]-[dP]-OMe) |  |  |  |  | Lesion outbreak rate ([1]; Table 6, tobacco, 1 ppm): 35%; Lesion outbreak rate ([1]; Table 6, tobacco, 10 ppm): 60%; Lesion outbreak rate ([1]; Table 6, tobacco, 100 ppm): 46%
COC(=O)[C@H]1CCCN1C(=O)[C@@H](CC(C)C)NC(=O)OC(C)(C)C [Compound 75] (Boc-[dL]-[dP]-OMe) |  |  |  |  | Lesion outbreak rate ([1]; Table 6, tobacco, 1 ppm): 25%; Lesion outbreak rate ([1]; Table 6, tobacco, 10 ppm): 80%; Lesion outbreak rate ([1]; Table 6, tobacco, 100 ppm): 100%
COC(=O)[C@H]1CCCN1C(=O)[C@H](NC(=O)OC(C)(C)C)C(C)C [Compound 76] (Boc-[dV]-[dP]-OMe) |  |  |  |  | Lesion outbreak rate ([1]; Table 6, tobacco, 1 ppm): 46%; Lesion outbreak rate ([1]; Table 6, tobacco, 10 ppm): 41%; Lesion outbreak rate ([1]; Table 6, tobacco, 100 ppm): 37%
COC(=O)[C@@H]1CCCN1C(=O)[C@@H](CSC(c1ccccc1)(c1ccccc1)c1ccccc1)NC(=O)OC(C)(C)C [Compound 77] (Boc-[dC](Trt)-Pro-OMe) |  |  | 46 area % | 36 area % | 
COC(=O)[C@@H]1CCCN1C(=O)[C@H](N)CS [Compound 78] (H-[dC]-Pro-OMe) |  |  | 58 area % | 47 area % | 
COC(=O)CNC(=O)[C@H](CO)NC(=O)OC(C)(C)C [Compound 81] (Boc-Ser-Gly-OMe) |  |  | 68 area % | 58 area % | 
CCOC(=O)[C@H](C)NC(=O)CNC(=O)OC(C)(C)C [Compound 82] (Boc-Gly-Ala-OEt) |  |  | 74 area % | 60 area % | 
CCOC(=O)[C@H](Cc1ccccc1)NC(=O)[C@H](CC(C)C)NC(=O)OC(C)(C)C [Compound 83] (Boc-Leu-Phe-OEt) |  |  | 80 area % | 57 area % | 
COC(=O)[C@@H]1CCCN1C(=O)[C@H](Cc1c[nH]c2ccccc12)NC(=O)OC(C)(C)C [Compound 84] (Boc-Trp-Pro-OMe) |  |  | 35 area % | 33 area % | 
COC(=O)[C@@H]1CCCN1C(=O)[C@H](C)NC(=O)OC(C)(C)C [Compound 86] (Boc-Ala-Pro-OMe) |  |  | 58 area % | 83 area % | 
COC(=O)[C@@H](NC(=O)CNC(=O)OC(C)(C)C)C(C)C [Compound 87] (Boc-Gly-Val-OMe) |  |  | 62 area % | 36 area % | 
COC(=O)[C@@H](NC(=O)CN)C(C)C [Compound 88] (H-Gly-Val-OMe) |  |  | 35 area % | 33 area % | 
C=CCOC(=O)C[C@H](NC(=O)OC(C)(C)C)C(=O)N[C@@H](Cc1ccccc1)C(=O)OC [Compound 92] (Boc-Asp(OAll)-Phe-OMe) |  |  | 25 area % | 38 area % | 
COC(=O)[C@H](Cc1ccccc1)NC(=O)[C@H](CC(=O)OCc1ccccc1)NC(=O)OC(C)(C)C [Compound 94] (Boc-Asp(OBn)-Phe-OMe) |  |  | 12 area % | 6.8 area % | Outbreak of the phytophthora blight on the leaves ([2]; drench-treated to the roots): significantly decreased; Lesion formation, pepper phytophthora test ([2]; drench-treated, 1.0 or 10.0 ppm): no the lesion formations
COC(=O)C[C@H](NC(C)=O)C(=O)N[C@@H](Cc1ccccc1)C(=O)OC [Compound 96] (Ac-Asp(OMe)-Phe-OMe) |  |  | 32 area % | 23 area % | 
COC(=O)C[C@H](NC(=O)c1ccccc1)C(=O)N[C@@H](Cc1ccccc1)C(=O)OC [Compound 97] (Bz-Asp(OMe)-Phe-OMe) |  |  | 22 area % | 25 area % | 
C=CCOC(=O)C[C@H](NC(C)=O)C(=O)N[C@@H](Cc1ccccc1)C(=O)OC [Compound 98] (Ac-Asp(OAll)-Phe-OMe) |  |  | 16 area % | 12 area % | 
C=CCOC(=O)C[C@H](NC(=O)c1ccccc1)C(=O)N[C@@H](Cc1ccccc1)C(=O)OC [Compound 99] (Bz-Asp(OAll)-Phe-OMe) |  |  | 36 area % | 18 area % | 
